Reference: US20250067753A1, “Protein array-based in vitro transglutaminase assay platform for epitope mapping and immunogen design” (priority 2021, published 2025)

What was measured:
[1] = molecular target: T1, guinea pig liver tissue transglutaminase (UniProt P08587); assay: Onchip in vitro TG2 assay (dansyl-cadaverine incorporation on peptide microchip); format: biochemical; conditions: 100 μg/ml TG2, 3 mM dansyl-cadaverine, 5 mM Calcium Chloride, 37 degree, 30 minutes; anti-dansyl antibody/Alexa Fluor 594 readout
T1 construct: guinea pig liver tissue transglutaminase (Sigma); purchased Sigma; host or cells: guinea pig liver (as named)
T1 sequence (P08587 1-690): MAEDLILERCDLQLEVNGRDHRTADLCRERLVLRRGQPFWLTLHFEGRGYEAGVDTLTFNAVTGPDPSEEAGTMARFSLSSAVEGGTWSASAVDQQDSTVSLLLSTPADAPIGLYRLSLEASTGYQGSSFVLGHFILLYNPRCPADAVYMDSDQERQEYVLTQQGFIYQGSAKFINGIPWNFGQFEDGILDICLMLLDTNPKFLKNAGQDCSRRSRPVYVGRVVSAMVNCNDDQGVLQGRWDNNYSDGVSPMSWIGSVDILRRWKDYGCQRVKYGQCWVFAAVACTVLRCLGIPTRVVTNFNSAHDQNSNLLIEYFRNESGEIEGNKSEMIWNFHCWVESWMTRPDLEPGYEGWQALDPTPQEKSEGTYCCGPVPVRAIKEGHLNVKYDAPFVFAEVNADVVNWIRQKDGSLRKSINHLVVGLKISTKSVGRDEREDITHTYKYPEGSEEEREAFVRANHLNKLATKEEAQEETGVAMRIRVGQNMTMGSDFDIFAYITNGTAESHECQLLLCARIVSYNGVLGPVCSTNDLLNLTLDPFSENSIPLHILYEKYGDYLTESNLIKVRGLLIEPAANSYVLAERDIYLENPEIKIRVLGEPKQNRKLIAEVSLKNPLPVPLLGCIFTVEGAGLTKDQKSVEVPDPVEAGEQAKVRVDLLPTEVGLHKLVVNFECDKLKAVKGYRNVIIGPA
Procedure: To identify the glutamine residues that can be modified by tissue transglutaminase on the peptide microchip, the synthesized peptide microchip was incubated with 100 μg/ml guinea pig liver tissue transglutaminase (Sigma) and 3 mM dansyl-cadaverine (Sigma) in 1 ml of TBS containing 5 mM Calcium Chloride and 1 mM DTT at 37 degree for 30 minutes. Afterwards, the peptide chip was washed at least 3 times with TBS. After washing off tissue transglutaminase and dansyl-cadaverine molecules […] the synthesized peptides, the dansyl-cadaverine conjugated on the chip was tracked by rabbit anti-dansyl antibody (Invitrogen) followed by Alexa Fluor 594-labeled anti-rabbit secondary antibody (Invitrogen). Fluorescent microchip figures were quantified and analyzed with ArrayPro32. Original array figures and data are available upon request.
To characterize the glutamine-bearing TG2 modification motifs on these synthesized peptides, dansyl-cadaverine, a well-established amine donor in transglutaminase reaction, was covalently conjugated to the glutamine residues on the peptide chip by purified TG2 with the help of calcium (FIG. 1A). […] In this way the level of dansyl-cadaverine incorporation on a certain peptide was measured by the fluorescent intensity. […]

transglutaminase = conditions: as amine acceptor; Parameswaran, Velasco et al. 1990; cited from earlier work

QQIV
fluorescent intensity (level of dansyl-cadaverine incorporation) [1]: ~5000 | competitive inhibitor for the transglutaminase reaction (transglutaminase): effective competitive inhibitor
